Measurements: paper PMC11973506, “In vitro α–Glucosidase Inhibition, Cytotoxicity, SAR, Swiss ADME Prediction and Molecular Docking Study of New N–Substituted Hydantoin Derivatives” (ChemistryOpen, 2025)
Where two headings read alike, the source gives them in different places.

Assays:
[1] = molecular target: T1, Saccharomyces cerevisiae α-glucosidase (Saccharomyces cerevisiae, UniProt P53341); experiment: In vitro α-glucosidase inhibition assay (p-nitrophenyl glucopyranoside substrate); assay type: biochemical
T1 construct: purchased
T1 sequence (P53341 whole entry): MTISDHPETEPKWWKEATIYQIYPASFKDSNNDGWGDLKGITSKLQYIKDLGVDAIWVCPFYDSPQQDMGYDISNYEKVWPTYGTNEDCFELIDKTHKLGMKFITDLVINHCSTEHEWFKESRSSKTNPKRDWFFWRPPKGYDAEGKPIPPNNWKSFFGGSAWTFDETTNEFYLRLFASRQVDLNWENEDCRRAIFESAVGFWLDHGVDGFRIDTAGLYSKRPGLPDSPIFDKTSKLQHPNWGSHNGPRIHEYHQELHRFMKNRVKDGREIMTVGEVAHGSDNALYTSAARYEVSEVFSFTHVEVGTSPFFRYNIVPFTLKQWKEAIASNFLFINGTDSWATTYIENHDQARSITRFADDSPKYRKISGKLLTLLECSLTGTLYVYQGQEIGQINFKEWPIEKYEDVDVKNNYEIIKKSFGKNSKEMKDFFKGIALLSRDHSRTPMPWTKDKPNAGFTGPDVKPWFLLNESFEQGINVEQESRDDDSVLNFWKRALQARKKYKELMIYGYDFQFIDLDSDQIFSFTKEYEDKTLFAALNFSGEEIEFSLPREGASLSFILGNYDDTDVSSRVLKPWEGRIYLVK
Description: Using Saccharomyces cerevisiae α‐glucosidase enzymes, hydantoin derivatives 8 a–o were evaluated for them for their in vitro α‐glucosidase activity.
The α‐glucosidase inhibitions of compounds 8 a–o were screened as described in our previous method.[21] Epigallacatechin gallate (EGCG) was used as positive control. The α‐glucosidase enzyme (Saccharomyces Cerevisiae, 50 μg/mL) and substrate (p‐nitrophenyl glucopyranoside) were dissolved in a solution of potassium phosphate buffer (pH 6.3, 3 mM). Final compounds 8 a–o were dissolved in DMSO to give a final concentration of 200 μM. […] All samples (5 μL), enzyme (20 μL), and potassium phosphate buffer (60 μL) were added to the 96‐well plate and incubated at 37 °C for 5 min. Thereafter, the substrate (10 μL, 4 mM) was added to the mixture and incubated at 37 °C for 20 min followed by the addition of sodium carbonate (25 μL). Finally, the absorbance readings were measured by BioTek® PowerWave XS spectrophotometer (Winooski, VT, USA). Since the enzyme and substrate controls […], the percentage of α‐glucosidase inhibition was calculated using follows: (1) %α-glucosidaseinhibition=(A405nmofcontrol-A405nmoftestsample)/A405nmofcontrol×100

Caco2 cell line = settings: 48 hours of treatment with 100 μM, below 2000 considered toxic
Description: Cytotoxicity screening is one of the important tools used to determine whether a compound is toxic or not. Furthermore, these assays are performed by testing the ability of cells to continue proliferating in the presence of a test compound or substance over a specific period.[23] All hydantoin title compounds 8 a–o were screened for their in vitro cytotoxicity activity using the Caco2 cell line against the untreated (UT) and melphalan as a control. […] Any compound with living cells below […] was considered to be toxic.
The human colorectal adenocarcinoma cell line (CaCO2) used to screen the cytotoxicity of compounds 8 a–o was based on our initially described protocol.[21] […] Samples were sonicated if solubility was a problem and stored at 4 °C until required. Melphalan (100 mM stock) was prepared in DMSO and used as a positive control at a final concentration of 30 μM. The cells (4000 cells/well) were seeded in 96 well plates at 100 μL aliquots and were left for 24 hours to attach. After 24 hours, the 100 μL of the medium was treated with 100 μL aliquots of 200 μM dilution. Cells were maintained in 10 cm culture dishes in 10 mL complete medium (DMEM‐LG+10 % FBS+1× penicillin/streptomycin) and incubated for 48 hours at 37 °C, 5 % CO2, and 100 % relative humidity until needed. After incubation 100 μL staining solution Hoechst (5 μg/mL) and 10 μL PI solution were stained on the plates before they were incubated again for 30 min. Quantification of live and dead cells was performed using the ImageXpress Micro XLS Widefield Microscope (Molecular Devices) using a 10× Plan Fluor objective and DAPI and Texas Red filter cubes. Acquired images were analyzed using the MetaXpress software and Multi‐Wavelength Cell Scoring Application Module. Acquired data was transferred to an Excel spreadsheet and data was analyzed and processed.

[2] = text statement for 50 and 100 μM together

Structure (SMILES)	inhibition at 50 µM ([1]; 50 μM)	inhibition at 100 µM ([1]; 100 μM)	inhibition at 200 µM ([1]; 200 μM)	Cytotoxicity, live cells (Caco2 cell line)	inhibition at 10 µM ([1]; 10 μM)	α-glucosidase inhibition ([1]; 10 μM)	α-glucosidase inhibition ([1]; 200 μM)	Cytotoxicity, live cells (Caco2 cell line; listed as 8a)	α-glucosidase inhibition [1, 2]	α-glucosidase inhibition ([1]; 50 μM)	α-glucosidase inhibition ([1]; 100 μM)
CCCC(NC(=O)CN1C(=O)N/C(=C\c2ccc(C)cc2)C1=O)C(=O)OCC (stereo not drawn) [8 k]	14.5 ± 5.42%	17 ± 8.54%	41.9 ± 3.31%								
CCC(NC(=O)CN1C(=O)N/C(=C\c2ccc(C)cc2)C1=O)C(=O)OC (stereo not drawn) [8 f]	8.87 ± 21.3%	12.2 ± 10.9%		2230 ± 570	4.92 ± 18%						
COC(=O)C(C)NC(=O)CN1C(=O)N/C(=C\c2ccc(C)cc2)C1=O (stereo not drawn) [8 e]	9.01 ± 16.4%	9.75 ± 6.4%	51.4%	2567 ± 299		‐	31.35 ± 1.95%				
COC(=O)C(C)NC(=O)CN1C(=O)N/C(=C\c2ccc(OC)cc2)C1=O (stereo not drawn) [8 a]			51.6 ± 2.92%	2605			moderate inhibition	2605 ± 293	no activity		
CCOC(=O)C(NC(=O)CN1C(=O)N/C(=C\c2ccc(C)cc2)C1=O)C(C)C (stereo not drawn) [8 j]	13.8 ± 9.6%	19.2 ± 10.2%	48.5 ± 2.33%	2565 ± 198	6.49 ± 17.8%						
CCCC(NC(=O)CN1C(=O)N/C(=C\c2ccc(C)cc2)C1=O)C(=O)OC (stereo not drawn) [8 h]	16.3 ± 15.2%	25.4 ± 7.88%	42.8 ± 4.3%		3.45 ± 13.6%						
CCC(NC(=O)CN1C(=O)N/C(=C\c2ccc3c(c2)OCO3)C1=O)C(=O)OC (stereo not drawn) [8 m]	6.94 ± 10.9%	11.2 ± 11%	37.6 ± 10%			‐					
COC(=O)C(C)NC(=O)CN1C(=O)N/C(=C\c2ccc3c(c2)OCO3)C1=O (stereo not drawn) [8 l]	7.7 ± 17.8%	9.6 ± 23%	57.4 ± 4.05%			‐					
CCCC(NC(=O)CN1C(=O)N/C(=C\c2ccc3c(c2)OCO3)C1=O)C(=O)OC (stereo not drawn) [8 o]	16 ± 17.9%	37.4 ± 24.9%	57.8 ± 6.38%		11.3 ± 15.2%						
COC(=O)C(NC(=O)CN1C(=O)N/C(=C\c2ccc(OC)cc2)C1=O)C(C)C (stereo not drawn) [8 c]	3.37 ± 11.5%	9.51 ± 19.7%	41 ± 2.62%								
CCC(NC(=O)CN1C(=O)NC(=Cc2ccc(OC)cc2)C1=O)C(=O)OC (stereo not drawn) [8 b]	0.43 ± 16.8%		39.3 ± 1.01%								
CCOC(=O)C(NC(=O)CN1C(=O)N/C(=C\c2ccc3c(c2)OCO3)C1=O)C(C)C (stereo not drawn) [8 n]	14 ± 16.4%	28.3 ± 17.3%	57.4 ± 2.79%	2039 ± 740	0.73 ± 11.4%						
O=C(O[C@@H]1Cc2c(O)cc(O)cc2O[C@@H]1c1cc(O)c(O)c(O)c1)c1cc(O)c(O)c(O)c1 [EGCG, Epigallocatechin gallate, reference compound]	97.03 ± 0.41%	97.03 ± 0.41%	97.03 ± 0.41%		97.03 ± 0.41%						
COC(=O)C(NC(=O)CN1C(=O)N/C(=C\c2ccc(C)cc2)C1=O)C(C)C (stereo not drawn) [8 g]	4.13 ± 4.26%	18 ± 3.95%	45.2 ± 3.6%		1.8 ± 13.8%						
CCOC(=O)C(C)NC(=O)CN1C(=O)N/C(=C\c2ccc(C)cc2)C1=O (stereo not drawn) [8 i]			44.6 ± 0.99%	2595 ± 289		‐			no activity	‐	‐
